Columns and labels:
[1] = test system: B16F10 melanoma metastasis; assay: B16F10 melanoma metastasis model with anergy-induced iNKT cells: number of pulmonary nodules; assay type: in vivo, C57BL/6 mice; details: anergy induced with control IgG and α-GC; α-GC treatment during tumor inoculation; FIG. 10
Description: Anergy-induced iNKT cells were assayed for the recovery of anti-tumor activity by the antibodies of the present invention. In this regard, naive C57BL/6 mice were intraperitoneally injected with 200 μg of the control rat IgG, the anti-PD-1 antibody or the anti-PD-L1 antibody 24 hrs after which injection with 2 μg of α-GC induced iNKT cell anergy. 7 days later, 5×10^5 B16F10 tumor cells were i.v. injected. On Day 0, 4 and 8, the mice were treated with 500 ng of α-GC to induce anti-tumor activity of iNKT cells. 14 days later, the lungs were excised and the nodules formed by cancer metastasis were counted (A). The isolated lungs were observed under an optical microscope (B).

iNKT cells [2] = assay: iNKT cell activation in vivo: serum IFN-γ and IL-4 by ELISA after α-GC treatment; parameters: species or system C57BL/6 mice; details: 2 μg α-GC; FIG. 3
Description: C57BL/6 mice was injected with 200 μg of the control rat IgG, the anti-PD-1 mAb, the anti-PD-L1 mAb or the anti-PD-L2 mAb 24 hrs before treatment with 2 μg of α-GC. Sera were obtained at 0, 2, 6, 12, 24, 48 and 72 hrs after the treatment, followed by ELISA analysis for IFN-γ and IL-4 levels.

anergic iNKT cells [3] = assay: Recovery of responsiveness of anergic iNKT cells in vitro (cytokine ELISA of supernatants); assay type: cell-based, C57BL/6 mice; details: pre-treatment with 2 μg α-GC 7 days before restimulation, in presence of control IgG; FIG. 5
Description: The α-GC-induced unresponsiveness of iNKT cells was detected as early as 3 days after primary stimulation and observed to persist until 7~30 days after α-GC stimulation. Thus, C57BL/6 mice were injected with 2 μg of α-GC to induce iNKT cell anergy. One week and one month later, splenocytes were isolated from the mice and 5×10^5 cells were incubated for 3 days with 100 ng/ml of α-GC in the presence of 50 μg/ml of the control rat IgG, the anti-PD-1 mAb, the anti-PD-L1 mAb, or the anti-PD-L2 mAb. Also, splenocytes isolated from the mice were incubated for 3 days with 10 ng/ml of α-GC without mAb, and these were represented by ‘activation’. The supernatants were then assayed for IFN-γ and IL-4 levels by ELISA [*:p<0.05 and **:p<0.01 (vs. control rat IgG)].

anergic iNKT cells [4] = assay: Recovery of responsiveness of anergic iNKT cells in vivo: serum cytokines after secondary α-GC injection; parameters: species or system C57BL/6 mice; details: 2 μg α-GC, re-injection 14 days later; FIG. 6
Description: 200 μg of the control rat IgG, the anti-PD-1 antibody or the anti-PD-L1 antibody was intraperitoneally injected into C57BL/6 mice 24 hrs before treatment with 2 μg of α-GC. 14 days later, 2 μg of α-GC was injected again, followed by the preparation of sera 2 and 12 hrs after the re-injection for ELISA assay of IL-4 and IFN-γ levels, respectively.

iNKT cells [5] = assay: Expression of PD-1 and PD ligands on iNKT cells after α-GC administration (FACS); assay type: in vivo, C57BL/6 mice; details: FIG. 1
Description: Splenocytes were isolated from C57BL/6 mice administered with 2 μg of α-GC at different time points (0 hr, 6 hrs, 72 hrs, 7 days, one month and two months) after the administration. The cells were stained with a PE-conjugated anti-PD-1 monoclonal antibody, a PE-conjugated anti-PD-L1 monoclonal antibody, a PE-conjugated anti-PD-L2 monoclonal antibody and a PE-conjugated isotype control monoclonal antibody, respectively. iNKT cells were gated on B220^− TCR-β^intα-GC/CD1d:Ig^+ population. PD-1, PD-L1 and PD-L2 expression (open histograms) was analyzed by FACS. Shaded histograms indicate staining with isotype control niAbs.

## CCCCCCCCCCCCCCCCCCCCCCCCCC(=O)N[C@@H](CO[C@H]1O[C@H](CO)[C@H](O)[C@H](O)[C@H]1O)[C@H](O)[C@H](O)CCCCCCCCCCCCCC [α-GC, α-galactosylceramide]
[1]
  tumor growth / metastasis with anergic iNKT cells: did not suppress tumor growth
iNKT cells [2]
  time of peak blood IFN-γ level after α-GC treatment: ≤ 12 h
  time of peak blood IL-4 level after α-GC treatment: ≤ 2 h
Anergic iNKT cells [3]
  production of IFN-γ on restimulation after α-GC pre-treatment: greatly decrease
  production of IL-4 on restimulation after α-GC pre-treatment: greatly decrease
Anergic iNKT cells [4]
  serum IFN-γ upon secondary α-GC injection in mice pretreated with α-GC: significantly low
  serum IL-4 upon secondary α-GC injection in mice pretreated with α-GC: significantly low
iNKT cells [5]; after 2 μg α-GC
  PD-L1 expression on iNKT cells: temporarily increased
  persistence of the upregulated PD-1 level on iNKT cells: for two months
  time for PD-L1 expression to decline toward naive state levels: ≤ 72 h
iNKT cells [5]; regardless of activation status
  PD-L2 expression on iNKT cells: not found
iNKT cells [5]; splenocytes after 2 μg α-GC, 0 hr to two months
  PD-1 expression on iNKT cells: upregulated

— patent publication US8617546B2, “Anticancer agent comprising anti-PD-1 antibody or anti-PD-L1 antibody” (Seoul National University Industry Foundation, priority 2008, dated 2013)
